Source: patent publication US6080762A, “Pulmonary and nasal delivery of raloxifene” (priority 1999, dated 2000)

Assays:
[1] = cynomolgus monkey, in vivo
Procedure: (§1) Six adult cynomolgus monkeys (three males and three females) were used for this study. Males weighed from 5.3 kg to 5.5 kg at the start of the live phase. Females weighed from 3.8 kg to 4.9 kg at the start of the live phase. Each animal was uniquely identified with a number tattooed on the inner thigh.
(§2) The animals were housed individually in stainless steel cages. Rooms were thermostatically set to maintain a temperature of 72° F. and maintain an actual temperature within 8° F. from that set point. The environmental control system is designed to maintain a relative humidity of 20% and a maximum of 80%. Light was on a 12 hour cycle, with lights on between 0600 and 1800. […] On test days, the animals were given primate chow only after the completion of the inhalation exposures. Water was available ad libitum except during exposure times.
(§3) Prior to beginning the live phase of the study, the monkeys were conditioned, over an approximately 3 month period, to be caught, handled, and placed in a restraint chair using the pole-and-collar method. Foods like peanuts, marshmallows, and a variety of dried and fresh fruits were used as training rewards. The time that the monkeys were left in the chair was increased gradually up to 8 hours. By the end of the training period, all the monkeys could be caught quickly, placed into the restraint chair easily, and would allow limb manipulation, including having blood drawn, while in the chair.
(§4) Each monkey was studied once per week for 5 weeks. Target concentrations of raloxifene activity were 0, 3, 10, 0, and 30 mg/m^3 for Weeks 1 through 5 respectively. The activity was determined by correcting the amount of raloxifene collected by the potency of the lot used. Each exposure was for 8 hours, divided into 4 hour segments with 15 minutes in between. During the 15 minute period between the 4 hour exposures, the monkeys were offered juice to drink and apple pieces to eat. The conditioning period described above had used this method to keep the animals from becoming agitated due to hunger or thirst. A 15 minute break in the exposures was not expected to affect the blood levels of raloxifene.
(§5) The monkeys were placed into the restraint prior to each exposure. Two sheets of latex (0.030 in. thick) were placed around the animal's necks to form a seal. A 7-L head dome was placed over the animal's heads as described in J. Appl. […] Airflow of 15 L/min was maintained through the head dome via a calibrated transvector on the exhaust port. The raloxifene was aerosolized using a Wright Dust Feed II. […] The aerosol then entered the head-dome for the monkey to breath.
(§6) Each day, before the monkeys were exposed, the exposure system was set up and a gravimetric sample was taken to determine the raloxifene concentration. The monkey was then placed in the chair and the aerosol was generated using the same generator settings. After the exposure to the monkey, it was removed from the chair, the system re-assembled, and another gravimetric sample taken. The concentrations derived from the 2 gravimetric samples were averaged to obtain the raloxifene concentration for that exposure. Gravimetric concentrations were determined by collecting the aerosol directly from the head-dome onto a 25 mm Gelman type A/E glass fiber filter.

[2] = Pharmacokinetics of inhaled (pulmonary/nasal) aerosolized raloxifene in cynomolgus monkeys (Working Example 1)
Procedure: as §1, §2, §3, §4, §5, §6

[3] = cynomolgus monkey, in vivo; remark: listed apart in the source

O=C(c1ccc(OCCN2CCCCC2)cc1)c1c(-c2ccc(O)cc2)sc2cc(O)ccc12 [raloxifene]
blood levels of raloxifene (level and duration) [1]: relatively higher blood levels of raloxifene which lasted for several hours
initial levels of unmetabolized raloxifene absorbed into the blood [1]: higher, relative to oral delivery
Cmax (Mean Ralox.) ([2]; 8 h inhalation, exposure conc. 3.3 mg Ralox./m^3 of air, plasma): 7 ng/mL
Cmax (Mean Ralox.) ([2]; 8 h inhalation, exposure conc. 9.7 mg Ralox./m^3 of air, plasma): 17 ng/mL
Cmax (Mean Ralox.) ([2]; 8 h inhalation, exposure conc. 26.9 mg Ralox./m^3 of air, plasma): 47 ng/mL
AUC ratio of raloxifene/total raloxifene ([2]; inhalation, 10 mg/m^3 dose group): 0.56
AUC ratio of raloxifene/total raloxifene ([2]; inhalation, 30 mg/m^3 dose group): 0.82
sex differences in raloxifene, total raloxifene, Cmax, or AUC values ([2]; inhalation, males and females): No appreciable sex differences
blood levels by pulmonary/nasal delivery relative to oral administration ([2]; oral administration at an equivalent dose as comparison): considerably higher than those obtained following oral administration
bioavailability ([2]; pulmonary/nasal delivery): unexpected high level of bioavailability
Cmax (Mean Tot. Ralox.) ([2]; total raloxifene, 8 h inhalation, exposure conc. 26.9 mg Ralox./m^3 of air, plasma): 84 ng/mL
breathing frequency [3]: no significant changes
tidal volume [3]: no significant changes
